System: 855422-203-R-J1-PDC complex spheroid viability
Assay: Anticancer human tumor 855422-203-R-J1-PDC patient-derived bladder carcinoma cell line growth inhibition
Details: for IC50: curve of first compound; for viability, T/C: stronger effect = lower value
Summary of the method: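 Complex spheroids of tumor cells with HUVEC and human MSCs, exposed to iadademstat combined with other agents. Each agent tested in half-log steps from near clinical Cmax (else 10 microM top), DMSO ≤0.25%.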

[1] = second compound 0.1 µM, first compound 0.00316 µM
[2] = second compound 0.1 µM, first compound 0.01 µM
[3] = second compound 0.1 µM, first compound 0.0316 µM
[4] = second compound 0.1 µM, first compound 0.1 µM
[5] = second compound 0.316 µM, first compound 0.00316 µM
[6] = second compound 0.316 µM, first compound 0.01 µM
[7] = second compound 0.316 µM, first compound 0.0316 µM
[8] = second compound 0.316 µM, first compound 0.1 µM
[9] = second compound 1 µM, first compound 0.00316 µM
[10] = second compound 1 µM, first compound 0.01 µM
[11] = second compound 1 µM, first compound 0.0316 µM
[12] = second compound 1 µM, first compound 0.1 µM
[13] = second compound 3.16 µM, first compound 0.00316 µM
[14] = second compound 3.16 µM, first compound 0.01 µM
[15] = second compound 3.16 µM, first compound 0.0316 µM
[16] = second compound 3.16 µM, first compound 0.1 µM
[17] = second compound 10 µM, first compound 0.00316 µM
[18] = second compound 10 µM, first compound 0.01 µM
[19] = second compound 10 µM, first compound 0.0316 µM
[20] = second compound 10 µM, first compound 0.1 µM
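Note: drug exposure lasted 7 days starting on day 3 after seeding.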
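Throughout, for viability, T/C: luminescence viability as percent of DMSO vehicle wells = 100%.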

Row | Compound | IC50 (second compound 0.1 µM) [µM] | IC50 (second compound 0.316 µM) [µM] | IC50 (second compound 1 µM) [µM] | IC50 (second compound 3.16 µM) [µM] | IC50 (second compound 10 µM) [µM] | viability, T/C [1] [%] | viability, T/C [2] [%] | viability, T/C [3] [%] | viability, T/C [4] [%] | viability, T/C [5] [%] | viability, T/C [6] [%] | viability, T/C [7] [%] | viability, T/C [8] [%] | viability, T/C [9] [%] | viability, T/C [10] [%] | viability, T/C [11] [%] | viability, T/C [12] [%] | viability, T/C [13] [%] | viability, T/C [14] [%] | viability, T/C [15] [%] | other results
1 | COc1cc(Nc2ncc3c(n2)-c2ccc(Cl)cc2C(c2c(F)cccc2OC)=NC3)ccc1C(=O)O + NC1CCC(NC2CC2c2ccccc2)CC1 | > 1 | > 1 | > 1 | 0.892 | > 1 | 81 | 91.2 | 78.8 | 70.8 | 88.1 | 81.2 | 66.4 | 70.7 | 95.7 | 94.6 | 67.8 | 71.2 | 76.3 | 81.3 | 70.8 | viability, T/C (second compound 0.1 µM, first compound 0.316 µM): 64.5%; viability, T/C (second compound 0.1 µM, first compound 1 µM): 50.3%; viability, T/C (second compound 0.316 µM, first compound 0.316 µM): 64.2%; viability, T/C (second compound 0.316 µM, first compound 1 µM): 56.5%; viability, T/C (second compound 1 µM, first compound 0.316 µM): 61.5%; viability, T/C (second compound 1 µM, first compound 1 µM): 57%; viability, T/C [16]: 66.1%; viability, T/C (second compound 3.16 µM, first compound 0.316 µM): 59.4%; viability, T/C (second compound 3.16 µM, first compound 1 µM): 48.8%; viability, T/C [17]: 83.2%; viability, T/C [18]: 85.5%; viability, T/C [19]: 64.8%; viability, T/C [20]: 63%; viability, T/C (second compound 10 µM, first compound 0.316 µM): 57.7%; viability, T/C (second compound 10 µM, first compound 1 µM): 52.6%
2 | Cn1ncnc1C1c2n[nH]c(=O)c3cc(F)cc(c23)NC1c1ccc(F)cc1 (stereo not given) + NC1CCC(NC2CC2c2ccccc2)CC1 | > 0.1 | > 0.1 | > 0.1 | > 0.1 | > 0.1 | 97.1 | 86.5 | 78 | 77.5 | 84.3 | 83.9 | 90.7 | 82.3 | 109 | 86.2 | 92.9 | 81.3 | 109 | 78.2 | 77.4 | viability, T/C (second compound 0.1 µM, first compound 0.000316 µM): 104%; viability, T/C (second compound 0.1 µM, first compound 0.001 µM): 94.4%; viability, T/C (second compound 0.316 µM, first compound 0.000316 µM): 90%; viability, T/C (second compound 0.316 µM, first compound 0.001 µM): 92.4%; viability, T/C (second compound 1 µM, first compound 0.000316 µM): 88%; viability, T/C (second compound 1 µM, first compound 0.001 µM): 86.1%; viability, T/C (second compound 3.16 µM, first compound 0.000316 µM): 89.4%; viability, T/C (second compound 3.16 µM, first compound 0.001 µM): 97%; viability, T/C [16]: 74.8%; viability, T/C (second compound 10 µM, first compound 0.000316 µM): 82.7%; viability, T/C (second compound 10 µM, first compound 0.001 µM): 78.5%; viability, T/C [17]: 101%; viability, T/C [18]: 70.6%; viability, T/C [19]: 74.6%; viability, T/C [20]: 69.1%

Source: PubChem BioAssay AID1918943 (Molecular Pharmacology Branch, DTP, NCI, 2023)
